Measurements: US4414204A, “Antibiotic preparations having increased effectiveness, processes for their manufacture and method for increasing the antibiotic action of antibiotics” (Ciba-Geigy Corporation, priority 1979, dated 1983)

Columns and labels:
Format in all cases: in vivo
Salmonella typhimurium = experiment: Mice infected i.p. with Salmonella typhimurium, treated s.c. with cefroxadin alone or with muramylpeptide; survival, ED50; conditions: 40×10^4 cfu Salmonella typhimurium i.p., cefroxadin twice s.c. (0 and 3 h after infection) with 10 mg/kg N-acetylmuramyl-L-alanyl-D-isoglutaminyl-L-alanyl-2-(1',2'-dipalmitoyl-sn-glycero-3'-hydroxyphosphoryloxy)-ethylamide, survivors counted 4 and 10 days after infection
Procedure: (§1) For this purpose, animals are infected with a lethal or sub-lethal dose of a pathogenic micro-organism and then the specified novel preparation of the individual doses of muramylpeptide and antibiotic are administered. The action is determined as ED50, that is to say, the dose at which 50% of the animals survive.
(§2) Laboratory white mice are infected i.p. with 2×10^4 cfu (colony forming units) of Klebsiella pneumoniae, 0.1×10^4 cfu of Pasteurella multocida or 40×10^4 cfu of Salmonella typhimurium in salt solution so that 90 to 100% of the untreated control animals die within 48 hours. Immediately after infection and 3 hours after infection, groups of 10 mice are treated with cefroxadin, both alone (without muramylpeptide) and in combination with 10 mg/kg of N-acetylmuramyl-L-alanyl-D-isoglutaminyl-L-alanyl-2-(1',2'-dipalmitoyl-sn- glycero-3'-hydroxyphosphoryloxy)-ethylamide, these being administered twice subcutaneously in the form of aqueous solutions or suspensions. A count of the surviving animals was made 4 and 10 days after infection.

Klebsiella pneumoniae = experiment: Mice infected i.p. with Klebsiella pneumoniae, treated s.c. with cefroxadin alone or with muramylpeptide; survival, ED50; conditions: 2×10^4 cfu Klebsiella pneumoniae i.p., cefroxadin twice s.c. (0 and 3 h after infection) with 10 mg/kg N-acetylmuramyl-L-alanyl-D-isoglutaminyl-L-alanyl-2-(1',2'-dipalmitoyl-sn-glycero-3'-hydroxyphosphoryloxy)-ethylamide, survivors counted 4 and 10 days after infection
Procedure: as §1, §2

Pasteurella multocida = experiment: Mice infected i.p. with Pasteurella multocida, treated s.c. with cefroxadin alone or with muramylpeptide; survival, ED50; conditions: 0.1×10^4 cfu Pasteurella multocida i.p., cefroxadin twice s.c. (0 and 3 h after infection) with 10 mg/kg N-acetylmuramyl-L-alanyl-D-isoglutaminyl-L-alanyl-2-(1',2'-dipalmitoyl-sn-glycero-3'-hydroxyphosphoryloxy)-ethylamide, survivors counted 4 and 10 days after infection
Procedure: as §1, §2

Measured: ED50 values for the antibiotic in combination with the muramylpeptide versus alone

COC1=C(C(=O)O)N2C(=O)[C@@H](NC(=O)[C@H](N)C3=CCC=CC3)[C@H]2SC1 [cefroxadin, 7β-[D-2-amino-2-(1,4-cyclohexadienyl)-acetamido]-3-methoxy-3-cephem-4-carboxylic acid]
lower by a multiple: all assays above
